No end group written: not given here.
Tests used:
HEK293T‐eGFP cells = type: cell-based
full length NMT1 enzyme = target: T1, full length NMT1 enzyme (Homo sapiens, UniProt P30419); assay: NMT1 activity assay; conditions: synthesized octapeptide; average of three experiments
T1 sequence (P30419 1-496): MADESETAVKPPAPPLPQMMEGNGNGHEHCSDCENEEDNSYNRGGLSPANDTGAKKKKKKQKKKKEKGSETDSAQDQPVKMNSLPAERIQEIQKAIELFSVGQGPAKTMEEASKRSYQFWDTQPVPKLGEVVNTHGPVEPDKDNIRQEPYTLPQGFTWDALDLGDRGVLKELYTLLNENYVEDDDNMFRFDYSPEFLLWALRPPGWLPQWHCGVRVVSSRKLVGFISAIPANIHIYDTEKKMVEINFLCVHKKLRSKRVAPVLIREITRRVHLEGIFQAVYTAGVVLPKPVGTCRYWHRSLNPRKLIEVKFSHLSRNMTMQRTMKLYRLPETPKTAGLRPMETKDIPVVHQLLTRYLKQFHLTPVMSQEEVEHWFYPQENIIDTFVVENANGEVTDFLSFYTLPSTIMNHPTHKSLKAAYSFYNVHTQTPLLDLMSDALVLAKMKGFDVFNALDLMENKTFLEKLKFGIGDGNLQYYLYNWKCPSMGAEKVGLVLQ

Compound	effect on Cas9 and VSV‐G protein levels in recipient cells (HEK293T‐eGFP cells)	substrate of NMT1 enzyme (full length NMT1 enzyme)
CCN(CC)CCCC(C)Nc1ccnc2cc(Cl)ccc12 (centres unmarked) [chloroquine]	greatly increased	
ASNKSKPK [SRC(G2A)]		not a substrate of NMT1

Reference: PMC8982324 (Journal of Extracellular Vesicles, 2022)
